Test results: patent US6071525A, “Whitening cosmetics containing mulberrin” (priority 1997, dated 2000)
Entries after “also recorded” stand apart in the source; their conditions may differ. Where two headings read alike, the source gives them in different places. Blank lines part the entries; values can stand above or below the compound they belong to.

Key:
skin [1] = settings: background; cited from earlier work
skin [2] = settings: background; cited from earlier work; remark: listed apart in the source
tyrosinase [3] = settings: background; cited from earlier work
tyrosinase [4] = experiment: Tyrosinase inhibition effect (mushroom tyrosinase, tyrosine substrate, absorbance at 475 nm); type: biochemical; settings: pH 6.8, 37° C., 10 minutes
Protocol: The substrate, tyrosine was used as a solution (0.1 mg/ml) dissolved in 0.05 M sodium phosphate buffer (pH 6.8). […] Then 200 U/ml tyrosinase (0.5 ml) was added thereto, and the reaction performed at the same temperature for 10 minutes. As a control group, buffer solution (0.5 ml) was added instead of the compound. The reaction was quenched by placing the test tube containing the reaction mixture on ice. Absorbance was measured at a wavelength of 475 nm by using a spectrophotometer.

skin [5] = experiment: Whitening effect (general statement); settings: versus Cortex mori, kojic acid, arbutin and Ramulus mori extract
[6] = test system: B-16 melanoma (ATCC CRL 6323) cell line; experiment: Effect for melanin synthesis in melanocytes (B-16 melanoma); type: cell-based, mouse
Protocol: As melanocytes, commercially available B-16 melanoma (ATCC CRL 6323) cell line derived from mouse was used. The melanoma cell line was inoculated in DMEM culture medium containing glucose (4.5 g/l), 10% serum and 1% antibiotic agent, and cultivated in a 50 ml T-flask at 37° C. After cultivation under a condition of 5% CO2 for 24 hours, the culture solution was treated with 0.05% trypsin containing 0.02% EDTA to isolate cells, which was then inoculated in a 50 ml T-flask and cultivated for 48 hours. At this time, the number of cells was 5.76×10^6 cells/flask. A diluted solution of mulberrin in DMEM medium at a proper concentration was incorporated to the cultivated melanoma cells, and the mixture was cultivated at 37° C. for 5 days. After finishing cultivation, culture medium was thoroughly removed, and the residue was treated with 1 ml of saline-phosphate buffer solution (PBS) containing 0.02% EDTA and 0.05% trypsin to isolate cells, which were then centrifuged for 5 minutes to collect pure cells. The obtained cells were treated with a solution of 5% trichloroacetate (TCA), stirred, and centrifuged. Precipitated melanin was washed with saline-phosphate buffer solution, and treated with 1N NaOH to dissolve melanin therein. Absorbance at 475 nm was measured. Melanin concentration was determined from standard concentration curve of synthetic melanin (produced by Sigma).

SMILES: Oc1ccc(O)cc1 [Hydroquinone]
carcinogenicity (in words) (skin [1]): recognized as a carcinogen | skin irritation (in words) (skin [1]): irritates the skin strongly | whitening activity (in words) (skin [2]): irreversible whitening activity

SMILES: O=c1cc(CO)occ1O [Kojic acid, kojic acid]
inhibition of tyrosinase (in words) (tyrosinase [3]): high activity

SMILES: O=C1O[C@H]([C@@H](O)CO)C(O)=C1O [Ascorbic acid (vitamin C), Ascorbic acid]
inhibition of tyrosinase (in words) (tyrosinase [3]): relatively low activity in inhibition of tyrosinase

IC50 (concentration required for 50% inhibition of tyrosinase activity) (tyrosinase [4]): 0.50 µg/mL
SMILES: CC(C)=CCc1c(-c2ccc(O)cc2O)oc2c(CC=C(C)C)c(O)cc(O)c2c1=O [Mulberrin, mulberrin]
whitening effect compared with conventional whitening agents (in words) (skin [5]): much more intensive whitening effect than conventional whitening agents | inhibition of melanin synthesis (in words) [6]: very excellent effect in inhibiting melanin synthesis | inhibition at 10 µg/mL ([6]; Mus musculus, B16, 120 h, mulberrin 10 μg/ml, 5 days, 37° C., read-out: Inhibition ratio of melanin synthesis): 54.4% | inhibition at 20 µg/mL ([6]; Mus musculus, B16, 120 h, mulberrin 20 μg/ml, 5 days, 37° C., read-out: Inhibition ratio of melanin synthesis): 66.8% | inhibition at 50 µg/mL ([6]; Mus musculus, B16, 120 h, mulberrin 50 μg/ml, 5 days, 37° C., read-out: Inhibition ratio of melanin synthesis): 74.8% | inhibition at 100 µg/mL ([6]; Mus musculus, B16, 120 h, mulberrin 100 μg/ml, 5 days, 37° C., read-out: Inhibition ratio of melanin synthesis): 89.3% | inhibition of melanin synthesis (in words) ([6]; listed as mulberrin): strong whitening agent inhibiting melanin synthesis in melanocytes; also recorded: very strong inhibition effect of melanin synthesis | Content of melanin ([6]; mulberrin 10 μg/ml, 5 days, 37° C.): 1.95 pg/cell | Content of melanin ([6]; mulberrin 20 μg/ml, 5 days, 37° C.): 1.42 pg/cell | Content of melanin ([6]; mulberrin 50 μg/ml, 5 days, 37° C.): 1.07 pg/cell | Content of melanin ([6]; mulberrin 100 μg/ml, 5 days, 37° C.): 0.46 pg/cell
